Source: ChEMBL document CHEMBL1201862, “PubChem BioAssay data set” (2004)
The source made the active and inactive calls.

What was measured:
[1] = target: Peroxisome proliferator-activated receptor gamma/Nuclear receptor coactivator 2 (Homo sapiens, UniProt P37231); assay: (§1) TR-FRET dose response biochemical High Throughput Screening assay for agonists of the steroid receptor coactivator 2 (SRC-2) recruitment by the peroxisome proliferator-activated receptor gamma (PPAR gamma): non-selective agonists. [Related pubchem assays: 1297, 1032 ]; type: functional
[2] = target: Peroxisome proliferator-activated receptor gamma/Nuclear receptor coactivator 1 (Homo sapiens, UniProt P37231); assay: as §1, with “1 (SRC-1)” for “2 (SRC-2)”, “assays (depositor defined):AID1300, AID1808, AID504735, AID631]” for “assays: 1297, 1032 ]”; type: protein assay
[3] = target: Peroxisome proliferator-activated receptor gamma/Nuclear receptor coactivator 3 (Homo sapiens, UniProt P37231); assay: as §1, with “3 (SRC-3)” for “2 (SRC-2)”, “1301 (Confirmation screen.), 1048 (Primary screen.)]” for “1297, 1032 ]”; type: functional
[4] = target: T1, Serine/threonine-protein phosphatase (Candida dubliniensis (strain CD36 / CBS 7987 / NCPF 3949 / NRRLY-17841) (Yeast), UniProt B9W6M3); assay: calcineurin pathway inhibitors in yeast reporter, dose response, S. cerevisiae, CDRE-lacZ, luminescence, secondary (AID 2388); type: functional, cell-based;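 note: yeast reporter cells carrying a calcineurin-responsive lacZ construct stimulated with calcium chloride; luminescent beta-galactosidase reporter signal in whole cells rather than isolated phosphatase activity; potency for inhibition where a drop in reporter signal means calcineurin blockade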
T1 sequence (B9W6M3 whole entry): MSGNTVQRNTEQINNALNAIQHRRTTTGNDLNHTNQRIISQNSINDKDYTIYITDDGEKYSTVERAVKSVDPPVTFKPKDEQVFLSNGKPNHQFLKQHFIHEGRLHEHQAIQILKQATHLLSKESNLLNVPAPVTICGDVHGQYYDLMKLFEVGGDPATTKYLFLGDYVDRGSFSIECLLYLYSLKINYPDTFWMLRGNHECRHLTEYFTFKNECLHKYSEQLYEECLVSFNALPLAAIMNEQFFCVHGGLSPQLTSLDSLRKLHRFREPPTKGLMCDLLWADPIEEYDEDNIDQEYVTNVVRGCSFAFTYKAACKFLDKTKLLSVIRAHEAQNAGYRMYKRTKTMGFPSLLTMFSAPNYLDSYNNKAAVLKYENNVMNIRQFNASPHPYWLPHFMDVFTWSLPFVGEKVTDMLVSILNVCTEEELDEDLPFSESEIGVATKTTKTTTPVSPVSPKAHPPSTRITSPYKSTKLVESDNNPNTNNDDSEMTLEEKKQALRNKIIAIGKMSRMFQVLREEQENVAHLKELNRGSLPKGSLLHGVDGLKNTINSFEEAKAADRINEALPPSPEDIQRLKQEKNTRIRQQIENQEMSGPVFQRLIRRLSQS

[5] = C. albicans growth with fluconazole, confirmation, fluorescence, retest (AID 2467); type: functional, cell-based
[6] = target: ATP-dependent molecular chaperone HSP82 (Candida albicans (strain WO-1) (Yeast), UniProt C4YTQ8); assay: loss of DOC-induced GRE-beta-galactosidase reporter signal, dose response, Hsp90 inhibitor project, S. cerevisiae, luminescence (AID 2400); type: functional, cell-based;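 note: beta-galactosidase luminescence from glucocorticoid response element reporter as proxy for Hsp90 function; inhibitor potency where signal loss means Hsp90 inhibition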
[7] = NIH-3T3 fibroblast cytotoxicity, dose response, cytotoxicity control, cell-based, fluorescence, Alamar Blue, secondary assay (AID 2327); type: functional;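 note: NIH-3T3 mouse fibroblasts cultured with fluconazole at 8 µg/mL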
[8] = target: T2, Short transient receptor potential channel 4 (Mus musculus, UniProt Q9QUQ5); assay: mouse TRPC4 channel inhibitors, dose response, cell-based, HEK293 TRPC4/mu-opioid, Fluo-4 calcium (AID 434942); type: functional;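 note: potency of inhibitors blocking the TRPC4 calcium response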
T2 sequence (Q9QUQ5 whole entry): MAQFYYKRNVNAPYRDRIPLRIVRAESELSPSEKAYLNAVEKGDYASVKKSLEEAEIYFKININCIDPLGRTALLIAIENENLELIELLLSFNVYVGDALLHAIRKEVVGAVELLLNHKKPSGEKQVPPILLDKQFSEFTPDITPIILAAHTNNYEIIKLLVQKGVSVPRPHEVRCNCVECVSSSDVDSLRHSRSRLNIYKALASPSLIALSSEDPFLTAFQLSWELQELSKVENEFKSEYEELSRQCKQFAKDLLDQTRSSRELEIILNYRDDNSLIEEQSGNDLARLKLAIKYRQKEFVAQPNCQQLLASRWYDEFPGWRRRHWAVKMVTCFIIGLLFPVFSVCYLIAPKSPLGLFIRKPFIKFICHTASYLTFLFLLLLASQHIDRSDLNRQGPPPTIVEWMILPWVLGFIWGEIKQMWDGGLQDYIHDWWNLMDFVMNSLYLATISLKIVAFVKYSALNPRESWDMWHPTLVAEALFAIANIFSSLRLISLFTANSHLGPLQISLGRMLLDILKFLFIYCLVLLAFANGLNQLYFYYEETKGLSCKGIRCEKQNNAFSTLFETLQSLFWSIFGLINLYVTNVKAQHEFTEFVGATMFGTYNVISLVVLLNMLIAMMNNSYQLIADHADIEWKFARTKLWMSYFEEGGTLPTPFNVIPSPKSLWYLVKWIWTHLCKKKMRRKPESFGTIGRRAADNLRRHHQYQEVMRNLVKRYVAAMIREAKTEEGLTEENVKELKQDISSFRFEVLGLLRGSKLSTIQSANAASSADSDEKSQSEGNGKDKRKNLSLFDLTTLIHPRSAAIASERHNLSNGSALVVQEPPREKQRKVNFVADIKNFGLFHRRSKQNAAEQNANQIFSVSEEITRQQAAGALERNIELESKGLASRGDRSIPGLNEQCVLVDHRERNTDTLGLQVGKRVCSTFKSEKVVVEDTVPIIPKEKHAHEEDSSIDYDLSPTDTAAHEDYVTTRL

[9] = target: T3, Polyadenylate-binding protein 1 (Homo sapiens, UniProt P11940); assay: PABP1 MLLE–PAM2 interaction inhibitors, dose response, miRNA deadenylation inhibitor project, biochemical, fluorescence polarization, Cy5-PAM2 peptide, secondary (AID 602260); type: functional; conditions: read-out: IC50_Mean
[10] = target: T3, Polyadenylate-binding protein 1; assay: PABP1 MLLE–PAM2 binding inhibitor potency, dose response, biochemical, fluorescence polarization, FITC-PAM2 peptide (AID 602259); type: functional; conditions: read-out: IC50_Mean
[11] = cytotoxicity in HEK-293T cells, dose response, cytotoxicity control for TCR NF-kB inhibitor project, luminescence, T-cell screen hits (AID 489026); type: functional, cell-based;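 note: cells exposed to compound about 14 hours before the viability readout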
Cytochrome P450 3A4 = Cytochrome P450 3A4 (Homo sapiens, UniProt P08684);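 note: CYP3A4 tested as one member of a cytochrome P450 panel screen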
Cytochrome P450 2C9 [12] = target: T4, Cytochrome P450 2C9 (Homo sapiens, UniProt P11712)
[13] = target: T5, Lysine-specific demethylase 4C (Homo sapiens, UniProt Q9H3R0); assay: GASC-1 (JMJD2C) histone demethylase inhibitors, dose response, biochemical, DELFIA europium, cherry-picked samples (AID 488835); type: functional
T5 sequence (Q9H3R0 whole entry): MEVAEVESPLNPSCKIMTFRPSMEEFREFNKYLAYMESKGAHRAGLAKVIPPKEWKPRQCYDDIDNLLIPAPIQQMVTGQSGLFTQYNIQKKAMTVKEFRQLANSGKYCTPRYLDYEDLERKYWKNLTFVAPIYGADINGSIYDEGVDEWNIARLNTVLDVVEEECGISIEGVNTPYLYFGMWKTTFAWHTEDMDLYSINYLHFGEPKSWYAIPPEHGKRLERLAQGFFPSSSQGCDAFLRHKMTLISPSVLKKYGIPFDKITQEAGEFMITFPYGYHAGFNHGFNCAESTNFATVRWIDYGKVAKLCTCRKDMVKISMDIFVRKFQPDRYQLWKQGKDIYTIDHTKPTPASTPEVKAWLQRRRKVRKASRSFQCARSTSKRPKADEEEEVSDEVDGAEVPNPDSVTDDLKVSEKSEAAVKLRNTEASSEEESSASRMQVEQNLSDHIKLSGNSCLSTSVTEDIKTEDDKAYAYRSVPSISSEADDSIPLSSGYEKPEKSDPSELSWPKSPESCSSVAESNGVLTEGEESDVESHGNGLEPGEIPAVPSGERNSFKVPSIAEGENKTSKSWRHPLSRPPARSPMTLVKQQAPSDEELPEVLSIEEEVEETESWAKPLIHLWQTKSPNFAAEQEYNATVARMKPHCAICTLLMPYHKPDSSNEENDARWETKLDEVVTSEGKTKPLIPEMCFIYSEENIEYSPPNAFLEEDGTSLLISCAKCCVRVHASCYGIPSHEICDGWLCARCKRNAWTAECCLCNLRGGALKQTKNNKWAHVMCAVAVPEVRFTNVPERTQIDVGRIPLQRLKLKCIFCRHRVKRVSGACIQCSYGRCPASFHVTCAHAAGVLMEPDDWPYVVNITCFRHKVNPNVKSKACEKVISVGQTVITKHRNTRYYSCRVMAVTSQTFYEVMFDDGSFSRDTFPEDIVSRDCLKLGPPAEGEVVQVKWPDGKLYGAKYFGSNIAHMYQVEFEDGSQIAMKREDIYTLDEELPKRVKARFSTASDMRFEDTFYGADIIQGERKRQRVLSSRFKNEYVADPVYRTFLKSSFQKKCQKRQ

[14] = target: FAD-linked sulfhydryl oxidase ALR (Homo sapiens, UniProt P55789); assay: inhibitors of human ALR sulfhydryl oxidase, dose response, biochemical, H2O2 detection, luminescence, cherry-pick (AID 493248)
[15] = target: T6, Heat shock factor protein 1 (Mus musculus, UniProt P38532); assay: inhibition of MG132-induced HSE-luciferase signal, confirmation, cell-based, NIH3T3, luminescence, dose retest (AID 2382); type: functional;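 note: NIH3T3 fibroblasts with HSF1-driven luciferase reporter stressed by proteasome inhibitor MG132; luminescence from HSF1-driven luciferase expression after 8 hours of MG132 stress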
T6 sequence (P38532 whole entry): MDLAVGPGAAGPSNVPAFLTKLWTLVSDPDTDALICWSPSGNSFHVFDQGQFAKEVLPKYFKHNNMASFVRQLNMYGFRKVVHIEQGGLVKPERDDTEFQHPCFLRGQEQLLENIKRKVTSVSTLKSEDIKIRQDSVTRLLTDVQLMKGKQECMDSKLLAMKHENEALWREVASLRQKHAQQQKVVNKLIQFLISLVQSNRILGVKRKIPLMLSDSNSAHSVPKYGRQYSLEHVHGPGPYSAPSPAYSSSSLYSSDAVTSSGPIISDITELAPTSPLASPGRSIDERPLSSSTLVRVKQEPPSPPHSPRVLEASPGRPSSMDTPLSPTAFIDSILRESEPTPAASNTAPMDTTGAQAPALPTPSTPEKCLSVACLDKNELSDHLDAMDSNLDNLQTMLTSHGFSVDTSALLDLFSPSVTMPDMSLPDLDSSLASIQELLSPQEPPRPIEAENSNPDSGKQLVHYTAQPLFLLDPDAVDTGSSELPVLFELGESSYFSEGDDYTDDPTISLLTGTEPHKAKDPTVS

Cytochrome P450 2C19 = Cytochrome P450 2C19 (Homo sapiens, UniProt P33261); assay: Cytochrome panel assay with activity outcomes. Panel member name: p450-cyp2c19 Compounds with AC50 equal or less than 10 uM are considered active; type: functional; conditions: read-out: AC50
BJ [16] = assay: cytotoxicity toward BJ-TERT fibroblasts, dose response, cell-based, RAS-independent, luminescence (AID 1933); type: functional; conditions: Homo sapiens
[17] = cytotoxicity toward DRD oncogenic fibroblasts, dose response, cell-based, non-viral oncogenic, luminescence (AID 1934); type: functional; conditions: Homo sapiens
BJ [18] = assay: cytotoxicity toward BJ-TERT-LT-ST fibroblasts, dose response, cell-based, RAS-independent, luminescence (AID 1935); type: functional; conditions: Homo sapiens;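 note: BJ fibroblasts immortalized with TERT plus LT and ST oncogenes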
BJ [19] = assay: cytotoxicity toward Ras-transformed BJeLR fibroblasts, dose response, cell-based, alamar blue fluorescence, cherrypicked samples (AID 2631); type: functional; conditions: Homo sapiens;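 note: confirmatory dose-response assay in RAS-dependent BJ fibroblasts engineered with TERT, LT and ST, with cytotoxicity read by fluorescence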
BJ [20] = assay: cells; type: functional, cell-based; conditions: Homo sapiens
Cytochrome P450 2C9 [21] = target: T4, Cytochrome P450 2C9; remark: listed apart in the source

Sequence of Cytochrome P450 3A4 (P08684 whole entry): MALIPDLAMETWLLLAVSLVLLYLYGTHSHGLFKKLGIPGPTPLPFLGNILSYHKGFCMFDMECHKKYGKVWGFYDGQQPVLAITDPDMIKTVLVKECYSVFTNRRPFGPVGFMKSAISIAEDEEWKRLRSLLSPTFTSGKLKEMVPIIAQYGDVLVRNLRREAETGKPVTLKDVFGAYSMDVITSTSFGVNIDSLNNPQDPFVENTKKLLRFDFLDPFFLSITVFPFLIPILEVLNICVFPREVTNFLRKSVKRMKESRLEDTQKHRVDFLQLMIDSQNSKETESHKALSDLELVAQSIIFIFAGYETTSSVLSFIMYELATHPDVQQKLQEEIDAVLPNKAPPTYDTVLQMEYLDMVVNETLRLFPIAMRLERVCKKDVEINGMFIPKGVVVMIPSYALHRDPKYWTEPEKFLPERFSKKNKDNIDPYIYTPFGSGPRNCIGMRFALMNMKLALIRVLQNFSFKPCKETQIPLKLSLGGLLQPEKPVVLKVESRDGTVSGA
T4 sequence (P11712 whole entry): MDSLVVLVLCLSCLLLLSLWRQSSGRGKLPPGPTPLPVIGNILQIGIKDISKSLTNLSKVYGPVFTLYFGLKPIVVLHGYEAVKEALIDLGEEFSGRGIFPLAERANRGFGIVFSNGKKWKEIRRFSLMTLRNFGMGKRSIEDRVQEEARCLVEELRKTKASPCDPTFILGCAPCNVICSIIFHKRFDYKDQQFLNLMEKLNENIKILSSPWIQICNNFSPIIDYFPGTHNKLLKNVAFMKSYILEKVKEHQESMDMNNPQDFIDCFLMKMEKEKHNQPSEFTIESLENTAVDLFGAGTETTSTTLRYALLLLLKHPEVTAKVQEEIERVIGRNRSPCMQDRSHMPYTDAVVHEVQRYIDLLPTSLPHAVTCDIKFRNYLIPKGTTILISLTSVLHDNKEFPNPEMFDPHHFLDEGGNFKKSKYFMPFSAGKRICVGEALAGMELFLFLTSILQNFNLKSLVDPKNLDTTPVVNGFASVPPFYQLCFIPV
Sequence of ATP-dependent molecular chaperone HSP82 (C4YTQ8 whole entry): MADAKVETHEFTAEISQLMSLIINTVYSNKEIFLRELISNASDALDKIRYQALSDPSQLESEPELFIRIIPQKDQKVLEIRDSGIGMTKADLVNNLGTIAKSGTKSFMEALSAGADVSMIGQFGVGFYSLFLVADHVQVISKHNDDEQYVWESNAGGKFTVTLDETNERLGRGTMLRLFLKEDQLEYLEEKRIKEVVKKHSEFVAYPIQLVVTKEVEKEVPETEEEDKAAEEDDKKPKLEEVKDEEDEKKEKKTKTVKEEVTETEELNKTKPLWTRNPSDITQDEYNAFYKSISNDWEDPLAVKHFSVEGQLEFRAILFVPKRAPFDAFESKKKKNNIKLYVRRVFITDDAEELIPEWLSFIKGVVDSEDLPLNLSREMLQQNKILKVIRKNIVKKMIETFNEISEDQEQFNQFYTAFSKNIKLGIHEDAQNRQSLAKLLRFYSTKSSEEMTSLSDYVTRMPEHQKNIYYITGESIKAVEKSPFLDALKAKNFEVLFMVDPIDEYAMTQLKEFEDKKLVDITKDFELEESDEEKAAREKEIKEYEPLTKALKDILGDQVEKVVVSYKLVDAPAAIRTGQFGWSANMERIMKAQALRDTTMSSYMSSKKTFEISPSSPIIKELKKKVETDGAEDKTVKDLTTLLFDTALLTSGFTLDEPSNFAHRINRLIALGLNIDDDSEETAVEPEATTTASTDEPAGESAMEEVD
T3 sequence (P11940 whole entry): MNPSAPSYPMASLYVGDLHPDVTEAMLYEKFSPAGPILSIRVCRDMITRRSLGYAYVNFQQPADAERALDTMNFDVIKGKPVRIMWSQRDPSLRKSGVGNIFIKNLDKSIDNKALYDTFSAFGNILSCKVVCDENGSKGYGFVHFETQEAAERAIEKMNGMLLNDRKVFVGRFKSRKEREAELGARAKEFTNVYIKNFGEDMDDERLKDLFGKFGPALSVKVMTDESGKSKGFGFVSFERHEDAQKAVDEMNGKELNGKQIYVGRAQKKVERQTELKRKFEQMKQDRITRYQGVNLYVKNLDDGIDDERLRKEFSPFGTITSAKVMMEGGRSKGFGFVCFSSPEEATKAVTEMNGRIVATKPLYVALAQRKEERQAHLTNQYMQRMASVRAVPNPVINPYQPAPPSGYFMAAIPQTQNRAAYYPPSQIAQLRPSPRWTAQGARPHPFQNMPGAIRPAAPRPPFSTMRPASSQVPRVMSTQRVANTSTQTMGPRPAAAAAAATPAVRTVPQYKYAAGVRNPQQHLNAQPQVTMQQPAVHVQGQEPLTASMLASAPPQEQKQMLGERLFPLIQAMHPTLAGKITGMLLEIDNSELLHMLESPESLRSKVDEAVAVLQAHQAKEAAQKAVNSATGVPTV
Sequence of Peroxisome proliferator-activated receptor gamma/Nuclear receptor coactivator 3 (P37231 whole entry): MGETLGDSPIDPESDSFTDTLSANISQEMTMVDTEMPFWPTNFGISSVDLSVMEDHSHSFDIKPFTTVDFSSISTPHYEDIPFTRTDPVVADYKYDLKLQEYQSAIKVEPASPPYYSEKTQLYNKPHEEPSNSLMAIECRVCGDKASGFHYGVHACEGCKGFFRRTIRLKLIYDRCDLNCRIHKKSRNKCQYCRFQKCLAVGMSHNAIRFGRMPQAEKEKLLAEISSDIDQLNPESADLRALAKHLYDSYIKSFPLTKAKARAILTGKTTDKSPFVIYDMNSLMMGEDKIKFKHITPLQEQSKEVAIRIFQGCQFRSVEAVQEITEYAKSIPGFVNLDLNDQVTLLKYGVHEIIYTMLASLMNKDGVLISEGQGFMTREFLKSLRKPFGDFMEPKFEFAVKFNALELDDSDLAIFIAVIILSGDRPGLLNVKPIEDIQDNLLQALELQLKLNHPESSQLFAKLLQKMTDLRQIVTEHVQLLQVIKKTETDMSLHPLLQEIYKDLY
Sequence of Peroxisome proliferator-activated receptor gamma/Nuclear receptor coactivator 3 (Q9Y6Q9 whole entry, further chain): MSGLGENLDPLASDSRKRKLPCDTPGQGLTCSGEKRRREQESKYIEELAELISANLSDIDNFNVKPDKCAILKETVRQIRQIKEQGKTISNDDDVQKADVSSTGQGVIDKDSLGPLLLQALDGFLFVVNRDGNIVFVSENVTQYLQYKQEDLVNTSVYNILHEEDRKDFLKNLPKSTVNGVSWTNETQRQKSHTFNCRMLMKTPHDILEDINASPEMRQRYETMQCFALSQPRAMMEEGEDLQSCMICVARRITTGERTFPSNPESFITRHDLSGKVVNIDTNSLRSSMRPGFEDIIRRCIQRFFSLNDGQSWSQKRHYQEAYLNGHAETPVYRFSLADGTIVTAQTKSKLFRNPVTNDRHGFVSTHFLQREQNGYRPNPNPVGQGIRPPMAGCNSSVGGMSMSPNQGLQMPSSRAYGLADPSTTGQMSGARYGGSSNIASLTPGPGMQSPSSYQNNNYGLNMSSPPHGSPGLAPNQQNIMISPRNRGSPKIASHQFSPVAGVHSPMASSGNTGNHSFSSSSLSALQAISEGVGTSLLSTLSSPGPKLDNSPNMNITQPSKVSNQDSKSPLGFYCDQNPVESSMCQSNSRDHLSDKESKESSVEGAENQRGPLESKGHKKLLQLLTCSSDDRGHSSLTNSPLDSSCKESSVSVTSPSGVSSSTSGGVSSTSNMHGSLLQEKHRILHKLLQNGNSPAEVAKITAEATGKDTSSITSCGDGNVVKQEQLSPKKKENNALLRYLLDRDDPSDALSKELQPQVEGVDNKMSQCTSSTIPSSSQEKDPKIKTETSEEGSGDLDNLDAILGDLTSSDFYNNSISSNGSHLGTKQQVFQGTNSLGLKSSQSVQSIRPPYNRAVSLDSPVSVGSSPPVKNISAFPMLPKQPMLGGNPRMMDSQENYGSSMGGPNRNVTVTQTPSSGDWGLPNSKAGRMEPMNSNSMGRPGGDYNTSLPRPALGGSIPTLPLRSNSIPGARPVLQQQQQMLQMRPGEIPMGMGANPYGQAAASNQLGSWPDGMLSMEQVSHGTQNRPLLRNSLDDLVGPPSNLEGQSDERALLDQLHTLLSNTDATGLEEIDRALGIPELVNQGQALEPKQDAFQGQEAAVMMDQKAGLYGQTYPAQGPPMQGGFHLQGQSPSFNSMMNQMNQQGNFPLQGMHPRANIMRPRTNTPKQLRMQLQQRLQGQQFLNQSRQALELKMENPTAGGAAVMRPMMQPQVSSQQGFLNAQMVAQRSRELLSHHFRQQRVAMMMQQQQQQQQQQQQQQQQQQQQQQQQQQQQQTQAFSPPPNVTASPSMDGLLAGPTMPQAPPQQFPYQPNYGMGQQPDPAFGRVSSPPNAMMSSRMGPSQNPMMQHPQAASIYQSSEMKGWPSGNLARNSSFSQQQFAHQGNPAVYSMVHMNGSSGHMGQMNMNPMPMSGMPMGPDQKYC
Sequence of Cytochrome P450 2C19 (P33261 whole entry): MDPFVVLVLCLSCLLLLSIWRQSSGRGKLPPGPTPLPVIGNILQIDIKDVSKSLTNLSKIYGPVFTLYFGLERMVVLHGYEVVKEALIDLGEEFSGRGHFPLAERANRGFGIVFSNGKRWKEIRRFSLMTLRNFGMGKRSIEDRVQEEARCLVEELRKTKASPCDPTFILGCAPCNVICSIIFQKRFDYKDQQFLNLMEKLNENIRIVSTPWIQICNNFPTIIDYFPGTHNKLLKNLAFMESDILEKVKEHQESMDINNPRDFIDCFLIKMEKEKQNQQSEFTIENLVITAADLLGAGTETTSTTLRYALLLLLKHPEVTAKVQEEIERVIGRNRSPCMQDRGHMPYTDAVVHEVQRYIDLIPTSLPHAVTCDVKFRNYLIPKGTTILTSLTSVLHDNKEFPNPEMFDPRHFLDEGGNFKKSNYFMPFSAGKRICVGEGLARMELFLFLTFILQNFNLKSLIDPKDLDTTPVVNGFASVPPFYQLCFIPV
Sequence of FAD-linked sulfhydryl oxidase ALR (P55789 whole entry): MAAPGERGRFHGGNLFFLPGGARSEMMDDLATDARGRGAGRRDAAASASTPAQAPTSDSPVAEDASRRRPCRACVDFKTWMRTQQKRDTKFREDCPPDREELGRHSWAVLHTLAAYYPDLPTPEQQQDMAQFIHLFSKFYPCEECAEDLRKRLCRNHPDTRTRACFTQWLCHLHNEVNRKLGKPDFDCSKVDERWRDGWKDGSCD

O=C(Oc1ccccc1)Oc1ccc2c(c1)oc(=O)c1ccccc12
EC50 [1]: 64.1 µM (not active)
EC50 [2]: > 79.4 µM (inactive)
EC50 [3]: > 79.4 µM (not active)

Cc1ccccc1/C=C1\SC(=S)N(/N=C/c2cc([N+](=O)[O-])ccc2O)C1=O
EC50 [4]: > 180 µM (inactive)
EC50 [5]: 2.01 µM (active)
EC50 [6]: 20.7 µM (active)
EC50 [7]: > 160 µM (inactive)

CCOCc1cn(CC(=O)c2ccc(Cl)cc2)c(C)nc1=N
EC50 [8]: 2.99 µM (active)

Cc1ccc(C)c(NC(S)=NNC(=O)c2csc(C(C)C)c2)c1
EC50 [4]: > 180 µM (inactive)
IC50 [9]: > 66 µM (inactive)
EC50 [5]: 0.907 µM (active)
IC50 [10]: > 66 µM (inactive)
EC50 [6]: > 160 µM (inactive)
EC50 [7]: > 150 µM (inactive)

CCOCCCNC(=O)c1cc2c(=O)n3cccc(C)c3nc2n1C
IC50 [11]: > 80 µM (inactive)

CCc1nnc(NC(=O)CSc2ncc(-c3ccccc3)n2C)s1
EC50 [4]: > 180 µM (inactive)
EC50 [5]: 1.3 µM (active)
EC50 [6]: 23.1 µM (active)
EC50 [7]: > 150 µM (inactive)

Cc1n[nH]c(C)c1CCCCOc1ccccc1
EC50 [8]: 3.76 µM (active)

C=CCN1CCc2c(cc(O)c(O)c2Br)[C@H](c2ccccc2)C1
AC50 (Cytochrome P450 3A4): inconclusive
AC50 (Cytochrome P450 2C9 [12]): 31.6 µM (inconclusive)

c1ccc(-c2nc(-c3ccco3)cs2)nc1
AC50 [13]: 20 µM (active)
AC50 [14]: 0.593 µM (active)

NS(=O)(=O)c1ccc(-c2ccc(/C=C3\C(=O)Nc4cc(Cl)ccc43)o2)cc1
EC50 [1]: 9.96 µM (active)
EC50 [2]: 19.7 µM (inactive)
EC50 [3]: > 26.5 µM (not active)

Nc1c2c(nc3ccccc13)N(c1ccccc1)CC2
EC50 [15]: > 195 µM (not active)
EC50 [8]: 1.88 µM (active)

CCC(=O)O[C@H]1CC[C@H]2[C@@H]3CCC4=CC(=O)CC[C@]4(C)[C@H]3CC[C@]12C [TESTOSTERONE PROPIONATE]
AC50 (Cytochrome P450 2C19): 10 µM (inconclusive)
AC50 (Cytochrome P450 3A4): inconclusive
AC50 (Cytochrome P450 2C9 [12]): 12.6 µM (inconclusive)

CN1CCN(c2ncc3nc(CCc4ccccc4)c(=O)n(C)c3n2)CC1
AC50 (Cytochrome P450 3A4): inconclusive
AC50 (Cytochrome P450 2C9 [12]): 39.8 µM (inconclusive)

Cn1c(NCc2ccccc2O)nc2ccccc21
EC50 [8]: 7.5 µM (active)

N=c1c2c(-c3ccccc3)c(-c3ccccc3)n(Cc3ccco3)c2ncn1CCCn1ccnc1
EC50 (BJ [16]): 9.46 µM (active)
EC50 [17]: 9.54 µM (active)
EC50 (BJ [18]): > 75 µM (not active)
EC50 (BJ [19]): 1.81 µM (active)
EC50 (BJ [20]): 22.5 µM (active)

C/C(Nc1c(C)n(C)n(-c2ccccc2)c1=O)=C1/C(=O)NC(=O)N(Cc2ccccc2)C1=O
AC50 (Cytochrome P450 3A4): inconclusive
AC50 (Cytochrome P450 2C9 [21]): inconclusive
